How the values were obtained:
[1] = test system: human lung adenocarcinoma cell line A549; assay: Cell growth test (Cell Titer Glo) A549; format: cell-based; settings: 3 to 5 days
From the text: (§1) The human undifferentiated thymoma cell line Ty-82 (JCRB), the human acute myeloid leukemia cell lines MV4-11 (ATCC), MOLM-13 (ATCC) and RS4-11 (ATCC), the human lymphoma cell line Raji (JCRB), the human cervical epidermoid carcinoma cell line Hela (JCRB), the human lung adenocarcinoma cell line A549 (ATCC), the human colon cancer cell lines DLD1 (DS Pharma) and HCT116 (DS Pharma), and the human pancreatic cancer cell line MIAPACA-2 (ATCC) were used to carry out a cell growth test.
(§2) Ty-82, MV4-11, MOLM-13, RS4-11, Raji and DLD1 were each seeded in a well plate, in which Roswell Park Memorial Institute (RPMI)-1640 medium supplemented with penicillin/streptomycin and fetal bovine serum (FBS) with a final concentration of 10% was placed. Hela was seeded in Dulbecco's Modified Eagle's medium (DMEM) supplemented with penicillin/streptomycin and FBS with a final concentration of 10%. A549 and MIAPACA-2 were each seeded in a well plate, in which Minimum Essential Medium (MEM) supplemented with penicillin/streptomycin and FBS with a final concentration of 10% was placed. […]
(§3) Thereafter, a medium containing a test compound serially diluted with DMSO, or DMSO, was added to each well of the plate, in which the cells had been seeded, and the obtained mixture was then cultured under conditions of 37° C. and 5% CO2 for 3 to 5 days. Cell Titer Glo reaction solution (Promega) was added to the culture, and the amount of luminescence was then measured using Envision plate reader (PerkinElmer). Since the amount of luminescence is in proportion to the concentration of adenosine triphosphate (ATP) in cells, the amount of luminescence was used as an indicator of the number of living cells. The growth inhibition percentage of the test compound in each concentration was calculated according to the following equation. Growth inhibition percentage (%)=(amount of luminescence in test compound−added well)/(amount of luminescence in DMSO−added well)×100 […]

[2] = test system: human cervical epidermoid carcinoma cell line Hela; assay: Cell growth test (Cell Titer Glo) Hela; format: cell-based; settings: 3 to 5 days
From the text: as §1, §2, §3

[3] = test system: human acute myeloid leukemia cell line MOLM-13; assay: Cell growth test (Cell Titer Glo) MOLM-13; format: cell-based; settings: 3 to 5 days
From the text: as §1
(§4) Ty-82, MV4-11, MOLM-13, RS4-11, Raji and DLD1 were each seeded in a well plate, in which Roswell Park Memorial Institute (RPMI)-1640 medium supplemented with penicillin/streptomycin and fetal bovine serum (FBS) with a final concentration of 10% was placed. Hela was seeded in Dulbecco's Modified Eagle's medium (DMEM) supplemented with penicillin/streptomycin and FBS with a final concentration of 10%. A549 and MIAPACA-2 were each seeded in a well plate, in which Minimum Essential Medium (MEM) supplemented with penicillin/streptomycin and FBS with a final concentration of 10% was placed. HCT116 was seeded in a well plate, in which McCoy's 5A medium supplemented with penicillin/streptomycin and FBS with a final concentration of 10% was placed.
(§5) Thereafter, a medium containing a test compound serially diluted with DMSO, or DMSO, was added to each well of the plate, in which the cells had been seeded, and the obtained mixture was then cultured under conditions of 37° C. and 5% CO2 for 3 to 5 days. Cell Titer Glo reaction solution (Promega) was added to the culture, and the amount of luminescence was then measured using Envision plate reader (PerkinElmer). Since the amount of luminescence is in proportion to the concentration of adenosine triphosphate (ATP) in cells, the amount of luminescence was used as an indicator of the number of living cells. The growth inhibition percentage of the test compound in each concentration was calculated according to the following equation. Growth inhibition percentage (%)=(amount of luminescence in test compound−added well)/(amount of luminescence in DMSO−added well)×100
(§6) The growth inhibition percentage of the test compound in each concentration was plotted by performing a non-linear regression analysis [(log (inhibitor) vs. response—Variable slope (four parameters)], using Graphpad prism 5, and a 50% growth inhibitory concentration [GI50 (nmol/L)] was then calculated.

[4] = test system: human lymphoma cell line Raji; assay: Cell growth test (Cell Titer Glo) Raji; format: cell-based; settings: 3 to 5 days
From the text: as §1, §2, §3

[5] = test system: human pancreatic cancer cell line MIAPACA-2; assay: Cell growth test (Cell Titer Glo) MIAPACA-2; format: cell-based; settings: MIA PaCa-2, MIAPACA-2, Pancreatic cancer, 3 to 5 days
From the text: as §1, §2, §3

[6] = test system: human acute myeloid leukemia cell line RS4-11; assay: Cell growth test (Cell Titer Glo) RS4-11; format: cell-based; settings: RS4-11, Acute myeloid leukemia, 3 to 5 days
From the text: as §1, §2, §3

[7] = test system: MV4-11 subcutaneously transplanted tumor; assay: Medicinal effect test, MV4-11-subcutaneously-transplanted cancer-bearing mouse models, oral administration; format: in vivo; settings: orally, once per day, 14 days, BALB/c nu/nu mice
Protocol: The human acute myeloid leukemia cell line MV4-11 (ATCC) was suspended in a mixture of RPMI-1640 medium and Matrigel (Corning), and the obtained mixture was then subcutaneously transplanted into 6-week-old female BALB/c nu/nu mice (CLEA Japan, Inc.). After confirming that the average tumor volume exceeded 200 mm^3, a test compound was dissolved in a solvent (a 0.5% methyl cellulose aqueous solution or water containing 1 equivalent of hydrochloric acid), and the obtained solution was then orally administered to the mice at a daily dose of 10 to 30 mg/kg, once per day, for 14 days. As a negative control, a solvent administration group involving administration of a 0.5% methyl cellulose aqueous solution was established. The tumor diameter was measured on a daily basis, and the tumor volume was calculated. The tumor volume was calculated by measuring the major axis and minor axis of the tumor and then applying the following equation. Tumor volume (mm^3)=[major axis (mm)×minor axis (mm)×minor axis (mm)]/2
T/C (%) was calculated from the average tumor volume of each group according to the following equation, and medicinal effects were then evaluated. T/C(%)=[1−(average tumor volume of drug administration group)/(average tumor volume of solvent administration group)]×100%

[8] = test system: human undifferentiated thymoma cell line Ty-82; assay: Cell growth test (Cell Titer Glo) Ty-82; format: cell-based; settings: TY82, 3 to 5 days
From the text: as §1, §4, §5, §6

[9] = test system: human colon cancer cell line HCT116; assay: Cell growth test (Cell Titer Glo) HCT116; format: cell-based; settings: HCT-116, 3 to 5 days
From the text: as §1, §2, §3

BRD3 BD2 = target: T1, BRD3 BD2 (Homo sapiens, UniProt Q15059); assay: Binding assay, BRD3 BD2 to acetylated histone H4 Peptide-Biotin (EPIgeneous Binding Domain Kit B); settings: for inhibition at 0.3 µM: test compound at 300 nmol/L, read-out: Binding inhibition percentage BRD3 BD2
T1 construct: BRD2 BD2, BRD3 BD2 and BRD4 BD2 (Cisbio); purchased Cisbio
T1 sequence (Q15059 306-415 limits assumed): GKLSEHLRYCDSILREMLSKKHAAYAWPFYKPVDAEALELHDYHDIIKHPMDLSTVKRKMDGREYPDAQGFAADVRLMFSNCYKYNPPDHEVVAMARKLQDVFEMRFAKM
Method in brief: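 HTRF binding of GST-tagged BD2 (20 nmol/L working stock) to biotinylated acetyl-histone H4 peptide (250 nmol/L working stock), using streptavidin-XL665 and anti-GST Eu cryptate. Incubated 20 h at room temperature; 665/620 nm ratio versus DMSO gives % inhibition; IC50 by four-parameter fit, or % inhibition at 300 nmol/L.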

Row | SMILES | GI50 [1] [nM] | GI50 [2] [nM] | GI50 [3] [nM] | GI50 [4] [nM] | GI50 [5] [nM] | GI50 [6] [nM] | T/C (%) ([7]; 10 mg/kg) | T/C (%) ([7]; 30 mg/kg) | GI50 [8] [nM] | GI50 [9] [nM] | IC50 (BRD3 BD2) [nM] | inhibition at 0.3 µM (BRD3 BD2) [%]
1 | CCn1c(=O)cc(C2CCN(C)CC2)c2cc(C(=O)N(C)c3ccc(C)cc3)ccc21 [Example 14, 1-Ethyl-N-methyl-N-(4-methylphenyl)-4-(1-methylpiperidin-4-yl)-2-oxo-1,2-dihydroquinoline-6-carboxamide] | 665 | 570 | 32 | 60 | 1420 | 66 | 34 | 45 | 12 | 241 | 70 | 83
2 | CCn1c(=O)cc(C2CCN(C)CC2)c2cc(C(=O)N(C)c3ccc4c(c3)CCC4)ccc21 [Example 17, N-(2,3-dihydro-1H-inden-5-yl)-1-ethyl-N-methyl-4-(1-methylpiperidin-4-yl)-2-oxo-1,2-dihydroquinoline-6-carboxamide] | 292 | 314 | 16 | 23 | 307 | 30 | 21 | 49 | 6 | 116 | 14 | 91
3 | CCn1c(=O)cc(N2CCOCC2)c2cc(-n3c(-c4ccc(Cl)cc4)c[nH]c3=O)ccc21 [Example 245, 6-(5-(4-chlorophenyl)-2-oxo-2,3-dihydro-1H-imidazol-1-yl)-1-ethyl-4-(morpholin-4-yl)quinolin-2(1H)-one] | 1740 | 1860 | 37 | 97 | 760 | 85 |  | 42 | 10 | 628 | 4 | 92

Reference: patent US10987349B2, “Antitumor agent and bromodomain inhibitor” (FUJIFILM Corporation, priority 2016, dated 2021)
